Measured values: patent US20250160366A1, “MEANS AND METHODS FOR MODULATING SECONDARY METABOLITE IN AN ANIMAL” (DSM IP Assets B.V., priority 2022, published 2025)

Legend:
[1] = OP at 1000 mg/kg feed, positive control 30 g GABA per ton of feed
[2] = in mice; cited from earlier work
[3] = GABA supplementation at 30 g/MT; Li et al. 2015, Bi et al. 2020; cited from earlier work

Structure (SMILES): NCCCC(=O)O [GABA, Gamma-aminobutyric acid]
- fold change (compared to day 0) of plasma COR as stress indicator [1]: 0.70
- fold change (compared to day 0) of plasma NPY as stress-resistance indicator [1]: 0.51
- plasma GABA fold change compared to day 0 ([1]; day 12): 1.07
- half-life of GABA in the body [2]: less than 17 min
- biting incidences [3]: lower
- growth performance [3]: increase
- stress-related parameters [3]: improve
